Results from patent US6417384B1, “Radioiodinated phospholipid ether analogs and methods of using the same” (The Regents of the University of Michigan, priority 1999, dated 2002).

Columns and labels:
[1] = test system: rats bearing Walker-256 tumor; experiment: Biodistribution studies with Walker-256 carcinosarcoma; assay type: in vivo, rat
Protocol: The three radiolabelled compounds illustrated in FIG. 5, including the improved C-18 analog 18-(p-iodophenyl)octadecyl phosphocholine (Compound XVI) described in Example 2, were prepared and administered to two sets of female Sprague Dawley rats (Charles River, Portage, Mich.). One normal set was used as a control, and one set was inoculated with Walker-256 carcinosarcoma cells (5×10^6 cells) in 0.2 ml saline in the right hindlimb. The Walker carcinoma cell line was provided by Dr. James Varani of the Department of Pathology at the University of Michigan, and is an accepted cell line representative of effect in humans. See, e.g. Tayck et al., “Influence of the Walker 256 Carcinosarcoma on Muscle, Tumor, and Whole-Body Protein Synthesis and Growth Rate in the Cancer-Bearing Rat, Cancer Res. 46:5649-54 (1986).
The animals were used 6-8 days later when the tumor weight averaged 10 g. The radiolabelled compounds were dissolved in absolute ethanol (50-500 μl) and Tween-20 (0.1 ml/mg of compound) was added to the solution. Ethanol was removed by evaporation under a stream of nitrogen. Physiological saline or sterile water was added, to give a 2-3% Tween-20 solution which was subsequently mixed by vortex. The solubilized radiolabelled compounds (5-10 μCi, 0.3 ml) were administered intravenously via the tail vein to tumor bearing rats, and the animals were sacrificed by exsanguination while under ether anesthesia at the various time points. Blood samples were collected through cardiac puncture and selected tissues (liver, kidney, etc.) were removed, trimmed, blotted to remove excess blood and weighed. Large organs were thoroughly minced with scissors to obtain random representative tissue samples.
For the biodistribution experiments with 12-(p-iodophenyl)dodecyl phosphocholine, weighed tissue samples were counted with a well scintillation counter (85% counting efficiency). The concentration of radioactivity in each tissue was expressed as a percentage of administered dose per gram of tissue.
Tissue distribution was assessed at various times following administration of the radioiodinated chain length isomers. The results are expressed as the mean % administered dose per gram±SEM (% Dose/g±SEM).

[2] = test system: rats bearing Dunning (MATLyLu) prostate tumors; experiment: Biodistribution studies with Dunning prostate tumor; assay type: in vivo, rat; details: for mean % administered dose per gram, Adrenal / mean % administered dose per gram, Blood / mean % administered dose per gram, Kidney / mean % administered dose per gram, Liver / mean % administered dose per gram, Lung / mean % administered dose per gram, Plasma / mean % administered dose per gram, Tumor: i.v., Dunning MAT-LyLu prostate tumor-bearing rats, mean ± SEM
Protocol: The three radiolabelled compounds illustrated in FIGS. 7A-7C, including the improved C-18 analogs 18-(p-iodophenyl)octadecyl phosphocholine (Compound XVI—FIG. 7B) and 1-O-[18-(p-iodophenyl)octadecyl]-1,3-propanediol-3-phosphocholine (Compound XIV—FIG. 7C) described in Examples 2 and 3, respectively, were prepared and administered to two sets of male Copenhagen rats (Harlan Sprague-Dawley, Indianapolis, Ind.). One group of normal animals was used as a control, and another group was inoculated with Dunning prostate tumor cells (1×10^6 MAT-LyLu cells) in 0.2 ml saline in the right hindlimb. The MAT-LyLu subline of the Dunning (R-3327) adenocarcinoma prostate tumor was provided by Dr. Ken Pienta of the Department of Urology at the University of Michigan, and is an accepted cell line representative of effect in humans. See, e.g., Pienta et al., “Inhibition of Spontaneous Metastasis in a Rat Prostrate Cancer Model by Oral Administration of Modified Citrus Pectin, J. Natl. Cancer Inst. 87:348-53 (1995).
The animals were maintained with free access to food and water until day 8-10. The radioiodinated phospholipid ether analog formulated in 2% Tween 20—sterile water (5-10 μCi, 0.3-0.4 ml, described above in Example 6) was administered intravenously into the tail vein of the tumor-bearing animals under metofane anesthesia. The animals were euthanized at selected time points after injection (n=3 per time point) and samples of blood, plasma and a variety of tissues including tumor and prostate are collected and analyzed for radioiodine content. Biodistribution values are calculated as the mean of the individual % administered dose per gram of tissue and % dose per organ values.

[3] = female, Sprague Dawley, rat, in vivo, iv, 24 h
[4] = female, Sprague Dawley, rat, in vivo, iv, 48 h

With `C[N+](C)(C)CCOP(=O)([O-])OCCCCCCCCCCCCCCCc1ccc(I)cc1` [C-15 Analog, 15-(p-iodophenyl)pentadecyl phosphocholine] the “mean % administered dose per gram, Adrenal” value ([1]; Adrenal, 24 hr, i.v., Walker-256 tumor-bearing rats, mean ± SEM) was 0.73 ± 0.08 % Dose/g, the “mean % administered dose per gram, Adrenal” value ([1]; Adrenal, 48 hr, i.v., Walker-256 tumor-bearing rats, mean ± SEM) was 0.49 ± 0.05 % Dose/g and the “mean % administered dose per gram, Blood” value ([1]; Blood, 24 hr, i.v., Walker-256 tumor-bearing rats, mean ± SEM) was 0.16 ± 0.01 % Dose/g. The “mean % administered dose per gram, Blood” value ([1]; Blood, 48 hr, i.v., Walker-256 tumor-bearing rats, mean ± SEM) was 0.14 ± 0.01 % Dose/g, the blood levels ([1]; Blood, 120 hours, i.v., Walker-256 tumor-bearing rats, mean ± SEM) was 0.07±0.01 % Dose/g and the “mean % administered dose per gram, Duodenum” value ([1]; Duodenum, 24 hr, i.v., Walker-256 tumor-bearing rats, mean ± SEM) was 1.13 ± 0.13 % Dose/g. The “mean % administered dose per gram, Duodenum” value ([1]; Duodenum, 48 hr, i.v., Walker-256 tumor-bearing rats, mean ± SEM) was 1.38 ± 0.24 % Dose/g, the “mean % administered dose per gram, Kidney” value ([1]; Kidney, 24 hr, i.v., Walker-256 tumor-bearing rats, mean ± SEM) was 1.14 ± 0.11 % Dose/g and the “mean % administered dose per gram, Kidney” value ([1]; Kidney, 48 hr, i.v., Walker-256 tumor-bearing rats, mean ± SEM) was 0.91 ± 0.04 % Dose/g. For the same compound, the “mean % administered dose per gram, Liver” value ([1]; Liver, 24 hr, i.v., Walker-256 tumor-bearing rats, mean ± SEM) was 1.29 ± 0.10 % Dose/g, the “mean % administered dose per gram, Liver” value ([1]; Liver, 48 hr, i.v., Walker-256 tumor-bearing rats, mean ± SEM) was 0.83 ± 0.04 % Dose/g and the “mean % administered dose per gram, Lung” value ([1]; Lung, 24 hr, i.v., Walker-256 tumor-bearing rats, mean ± SEM) was 0.97 ± 0.03 % Dose/g. The “mean % administered dose per gram, Lung” value ([1]; Lung, 48 hr, i.v., Walker-256 tumor-bearing rats, mean ± SEM) was 0.81 ± 0.04 % Dose/g, the “mean % administered dose per gram, Plasma” value ([1]; Plasma, 24 hr, i.v., Walker-256 tumor-bearing rats, mean ± SEM) was 0.16 ± 0.01 % Dose/g and the “mean % administered dose per gram, Plasma” value ([1]; Plasma, 48 hr, i.v., Walker-256 tumor-bearing rats, mean ± SEM) was 0.15 ± 0.03 % Dose/g. For the same compound, the “mean % administered dose per gram, Tumor” value ([1]; Tumor, 24 hr, i.v., Walker-256 tumor-bearing rats, mean ± SEM) was 1.47 ± 0.10 % Dose/g and the “mean % administered dose per gram, Tumor” value ([1]; Tumor, 48 hr, i.v., Walker-256 tumor-bearing rats, mean ± SEM) was 1.65 ± 0.23 % Dose/g.
`C[N+](C)(C)CCOP(=O)([O-])OCCCOCCCCCCCCCCCCCCCCCCc1ccc(I)cc1` [Compound XIV, 1-O-[18-(p-Iodophenyl)octadecyl]-1,3-propanediol-3-phosphocholine] was tested, and the “mean % administered dose per gram, Adrenal” value ([2]; 24 hr) was 1.37 ± 0.03 % Dose/g, the “mean % administered dose per gram, Adrenal” value ([2]; 48 hr) was 1.04 ± 0.07 % Dose/g and the “mean % administered dose per gram, Blood” value ([2]; 24 hr) was 0.41 ± 0.01 % Dose/g. The “mean % administered dose per gram, Blood” value ([2]; 48 hr) was 0.29 ± 0.01 % Dose/g, the “mean % administered dose per gram, Kidney” value ([2]; 24 hr) was 0.73 ± 0.02 % Dose/g and the “mean % administered dose per gram, Kidney” value ([2]; 48 hr) was 0.65 ± 0.01 % Dose/g. The “mean % administered dose per gram, Liver” value ([2]; 24 hr) was 0.57 ± 0.02 % Dose/g, the “mean % administered dose per gram, Liver” value ([2]; 48 hr) was 0.36 ± 0.01 % Dose/g and the “mean % administered dose per gram, Lung” value ([2]; 24 hr) was 0.89 ± 0.07 % Dose/g. For the same compound, the “mean % administered dose per gram, Lung” value ([2]; 48 hr) was 0.78 ± 0.02 % Dose/g, the “mean % administered dose per gram, Plasma” value ([2]; 24 hr) was 0.58 ± 0.01 % Dose/g and the “mean % administered dose per gram, Plasma” value ([2]; 48 hr) was 0.42 ± 0.03 % Dose/g. For the same compound, the “mean % administered dose per gram, Tumor” value ([2]; 24 hr) was 0.43 ± 0.05 % Dose/g and the “mean % administered dose per gram, Tumor” value ([2]; 48 hr) was 0.39 ± 0.01 % Dose/g.
In the case of `C[N+](C)(C)CCOP(=O)([O-])OCCCCCCCCCCCCCCCCCCc1ccc(I)cc1` [Compound XVI, 18-(p-iodophenyl)octadecyl phosphocholine], the “mean % administered dose per gram, Adrenal” value [1, 3] is reported as 0.85 ± 0.04 % Dose/g, the “mean % administered dose per gram, Blood” value [1, 3] is reported as 0.96 ± 0.00 % Dose/g and the “mean % administered dose per gram, Duodenum” value [1, 3] is reported as 0.69 ± 0.05 % Dose/g. The “mean % administered dose per gram, Kidney” value [1, 3] was 0.65 ± 0.00 % Dose/g, the “mean % administered dose per gram, Liver” value [1, 3] was 0.55 ± 0.04 % Dose/g and the “mean % administered dose per gram, Lung” value [1, 3] was 0.88 ± 0.06 % Dose/g. For the same compound, the “mean % administered dose per gram, Plasma” value [1, 3] was 1.47 ± 0.03 % Dose/g, the “mean % administered dose per gram, Tumor” value [1, 3] was 0.98 ± 0.07 % Dose/g and the “mean % administered dose per gram, Adrenal” value [1, 4] was 0.92 ± 0.06 % Dose/g. For the same compound, the “mean % administered dose per gram, Blood” value [1, 4] was 0.64 ± 0.07 % Dose/g, the “mean % administered dose per gram, Duodenum” value [1, 4] was 0.68 ± 0.04 % Dose/g and the “mean % administered dose per gram, Kidney” value [1, 4] was 0.59 ± 0.04 % Dose/g. For the same compound, the “mean % administered dose per gram, Liver” value [1, 4] was 0.59 ± 0.05 % Dose/g, the “mean % administered dose per gram, Lung” value [1, 4] was 0.76 ± 0.07 % Dose/g and the “mean % administered dose per gram, Plasma” value [1, 4] was 0.95 ± 0.11 % Dose/g. The “mean % administered dose per gram, Tumor” value [1, 4] was 1.14 ± 0.01 % Dose/g, the blood levels ([1]; female, Sprague Dawley, rat, in vivo, iv, 120 h) was 0.60±0.01 % Dose/g and the “clearance from non-target tissues” value ([1]; rat, in vivo) was “much more rapid than from tumor”. For the same compound, the “level in the tumor over a longer time period” value ([1]; rat, in vivo) was “increased significantly”, the “retention in the circulation” value ([1]; rat, in vivo) was “retained in the circulation to a much greater extent than the other chain length isomers surveyed” and the “mean % administered dose per gram, Adrenal” value ([2]; 24 hr) was 0.88 ± 0.02 % Dose/g. The “mean % administered dose per gram, Adrenal” value ([2]; 48 hr) was 0.76 ± 0.03 % Dose/g, the “mean % administered dose per gram, Blood” value ([2]; 24 hr) was 0.88 ± 0.04 % Dose/g and the “mean % administered dose per gram, Blood” value ([2]; 48 hr) was 0.64 ± 0.05 % Dose/g. The “mean % administered dose per gram, Kidney” value ([2]; 24 hr) was 0.59 ± 0.02 % Dose/g, the “mean % administered dose per gram, Kidney” value ([2]; 48 hr) was 0.51 ± 0.03 % Dose/g and the “mean % administered dose per gram, Liver” value ([2]; 24 hr) was 0.57 ± 0.02 % Dose/g. For the same compound, the “mean % administered dose per gram, Liver” value ([2]; 48 hr) was 0.40 ± 0.03 % Dose/g, the “mean % administered dose per gram, Lung” value ([2]; 24 hr) was 0.84 ± 0.01 % Dose/g and the “mean % administered dose per gram, Lung” value ([2]; 48 hr) was 0.69 ± 0.05 % Dose/g. For the same compound, the “mean % administered dose per gram, Plasma” value ([2]; 24 hr) was 1.43 ± 0.06 % Dose/g, the “mean % administered dose per gram, Plasma” value ([2]; 48 hr) was 0.99 ± 0.11 % Dose/g and the “mean % administered dose per gram, Tumor” value ([2]; 24 hr) was 0.75 ± 0.04 % Dose/g. The “mean % administered dose per gram, Tumor” value ([2]; 48 hr) was 0.81 ± 0.04 % Dose/g and the “tumor levels relative to the shorter chain analog” value ([2]; versus C-12 analog, Dunning prostate tumor model) was “more than twice as high”.
